# Assay results taken from patent US5468772A, “Tripterinin compound and method” (Pharmagenesis, Inc., priority 1993, dated 1995).
# Key:
# IL-6 = IL-6 production by PHA stimulated human PBLs (ELISA); assay type: cell-based; conditions: 24 h
# Experimental: (§1) The effect of tripterinin on the production of the cytokines IL-1b, IL2, IL-6, IFNγ, and TNFα was assessed by measurement of the concentration of these cytokines in PHA stimulated human PBL cultures. Cytokine levels were measured by standard ELISA methods using commercially available kits, as detailed in Example 6. Briefly, assay buffer was added to each of the wells of a microtiter plate containing pre-bound anti-cytokine antibody, followed by addition of standard or sample solution, diluted appropriately for the cytokine concentration measured, followed by a second reporter-labeled antibody specific against the anti-cytokine antibody. […]
# (§2) Cytokine measurements were carried out using commercially available ELISA assay kits (R&D Systems), in accordance with the supplier's protocols. In brief, 100 μl of the assay buffer supplied was added to each of the wells of a microtiter plate containing pre-bound anti-cytokine antibody, followed by 100 μl of standard or sample solution, diluted appropriately for the concentration range measured. […]
# (§3) Following two hours incubation, the plates were washed four times with assay buffer, and the second antibody, anti-anti-cytokine-horseradish peroxidase (HRP), was added to each well in a volume of 200 μl. […] Optical density was determined using a Molecular Devices microtiter plate reader.
# TNFα = TNFα production by PHA stimulated human PBLs (ELISA); assay type: cell-based; conditions: 24 h
# Experimental: as §1, §2, §3
# [1] = tested on: cultured human PBLs and mouse thymocytes; experiment: Cytotoxicity, trypan blue vital dye staining; assay type: cell-based; conditions: up to 10 μg/ml
# Experimental: (§4) Potential cytotoxicity of tripterinin was assessed by measurement of the effect of the compound on reduction of MTT (3-[4,5-Dimethylthiazol-2-yl]-2,5-diphenyltetrazolium bromide) by cultured cells, an index of cellular respiration and a sensitive assay for the detection of cytotoxicity (Green, et al.). Toxicity was evaluated in vitro in human PBLs and in mouse thymocytes, as detailed in Example 7. Sodium azide was used as a cytotoxic control. Cytotoxicity was also assessed using the standard method of trypan blue dye staining.
# Cytotoxicity was assessed in cultured human PBLs and mouse thymocytes. A stock solution of MTT (Sigma), 5 mg MTT/ml phosphate buffered saline, pH 7.4, was prepared and stored in the dark at 4° C. Following 21 hours incubation under conditions identical to those above, 25 μl of MTT solution was added to each culture well. After an additional 3 hour incubation, the experiment was terminated by addition of a solution of 10% sodium dodecyl sulfate in 0.01N HCl. Following overnight incubation at 37° C. (to solubilize the formazan crystals, the MTT reduction product), optical density was determined at 570-650 nm in a Molecular Devices microtiter plate reader. Data are expressed as the ratio of the optical density of the tripterinin treated sample to that of untreated controls. […] The standard method of trypan blue vital dye staining was also used to assess toxicity.
# mouse thymocytes = experiment: Inhibition of IL-1 action: IL-1 stimulated mouse thymocyte proliferation in presence of PHA; assay type: cell-based
# Experimental: The ability of tripterinin and tripterifordin to suppress the cell-proliferative effect of IL-1 in mouse thymocytes, an index of IL-1 action (O'Gara), was also examined. In this study, mouse thymocytes in culture were stimulated with IL-1 in the presence of phytohemagglutinin (PHA) and increasing concentrations of purified tripterinin or tripterifordin. The cells were cultured for 72 hours, and during the last four hours, incubated with tritiated thymidine. DNA synthesis was assessed by measurement of radiolabeled thymidine incorporation.
# Mouse thymocytes were prepared, and the action of IL-1, which stimulates thymocyte proliferation, was measured using standard techniques (O'Gara). Three to six week old C3H/HeN mice were obtained from Simonsen Laboratories, Gilroy, Calif. and sacrificed by CO2 inhalation. Thymi were removed, separated from adherent non-thymic tissue, homogenized in Hank's balanced salt solution (Gibco) using a glass homogenizer, and centrifuged at 180×g for 10 minutes at 15° C. Following an additional wash in HBSS, the thymocytes were resuspended in RPMI 1640 tissue culture medium (Gibco) containing 50 μM 2-mercaptoethanol (Fisher), 2 mM glutamine (Gibco), 1 mM sodium pyruvate, non-essential amino acids, penicillin (100 U/ml) streptomycin (100 μg/ml), 10% heat inactivated fetal bovine serum and Phytohemagglutinin (PHA, Pharmacia, final concentration 10 μg/ml). Cells were cultured in round-bottom 96 well microtiter tissue culture plates, 6×10^5 cells per well in a volume of 100 μl. Tripterinin or tripterifordin was diluted in tissue culture medium and added to the wells in the presence and absence of IL-1 (recombinant human IL-1, R&D Systems catalog #201-LB, 0.1 ng/ml). Total volume was 150 μl per well.
# Plates were incubated for 72 hours (95% air/5% CO2, 37° C.). During the last four hours of incubation, [^3 H]-thymidine (Amersham, […]) was added (0.5 μCi per well). Cells were harvested onto Whatman 934-AH glass microfiber filters and counted in a Beckman LS 6000 scintillation counter. Results were expressed as counts per minute per well.
# human PBLs = experiment: Cytotoxicity, MTT reduction, human PBLs; assay type: cell-based; conditions: up to 10 μg/ml, highest tested, 24 h
# Experimental: as §4
# Potential cytotoxicity of tripterinin was assessed by measurement of the compound's effect on the reduction of MTT (3-[4,5-Dimethylthiazol-2-yl]-2,5-diphenyltetrazolium bromide) by cultured cells. MTT, a yellow-colored compound, is reduced by mitochondrial enzymes to form a purple crystalline reduction product (formazan), providing an index of cellular respiration as well as a sensitive assay for cytotoxicity (Green, et al.).
# Cytotoxicity was assessed in cultured human PBLs and mouse thymocytes. […] (to solubilize the formazan crystals, the MTT reduction product), optical density was determined at 570-650 nm in a Molecular Devices microtiter plate reader. Data are expressed as the ratio of the optical density of the tripterinin treated sample to that of untreated controls. […]
# [2] = Solubility of crystalline tripterinin in organic solvents; assay type: physicochemical; conditions: methylene chloride or acetone
# IFNγ = IFNγ production by PHA stimulated human PBLs (ELISA); assay type: cell-based; conditions: 24 h
# Experimental: as §1, §2, §3
# IL2 = experiment: IL-2 production by PHA stimulated human PBLs (ELISA); assay type: cell-based; conditions: 24 h
# Experimental: as §1, §2, §3
compound,measurement,setting,value
C[C@]12CCC[C@]3(COC1=O)[C@@H]2CC[C@@]12C[C@@H](CC[C@]13O)[C@](C)(O)C2 [tripterinin],decrease in IL-6 production,IL-6; 0.7 μg/ml tripterinin,83%
same,decrease in IL-6 production,IL-6; 3.13 μg/ml tripterinin,99%
same,decrease in TNFα production,TNFα; 0.7 μg/ml tripterinin,93%
same,decrease in TNFα production,TNFα; 3.13 μg/ml tripterinin,98%
same,cytotoxicity (trypan blue staining),[1],consistent with those from the MTT reduction assay
same,cytotoxicity (trypan blue staining),[1]; listed as Tripterinin,no significant toxicity
same,concentration at which IL-1 stimulated cell proliferation was inhibited,"mouse thymocytes; mouse thymocytes, IL-1 with PHA, FIG. 10",about 0.2 μg/ml
same,inhibition of IL-1 stimulated thymocyte proliferation,"mouse thymocytes; tripterifordin 3.13 μg/ml, about 3 μg/ml, tripterinin 0.02 to 1 μg/ml",dose dependent inhibition
same,cytotoxicity (MTT reduction),human PBLs,No significant toxicity
same,cytotoxicity (MTT reduction),human PBLs; listed as Tripterinin,no significant toxicity
same,dissolution of crystalline compound,[2],dissolved easily
same,decrease in IFNγ production,IFNγ; 0.7 μg/ml tripterinin,84%
same,decrease in IFNγ production,IFNγ; 3.13 μg/ml tripterinin,80%
same,decrease in IL2 production,IL2; 0.7 μg/ml tripterinin,96%
same,decrease in IL2 production,IL2; 3.13 μg/ml tripterinin,96%
